The assay deals with T1, HCP4 (AnHCP4, holo-HCP4) (Nostoc sp. PCC 7120 = FACHB-418, UniProt Q8YMJ2).
T1 construct: gene all4941; C-terminal His-tag (pCDF-all4941-Ctag), expressed in E. coli BL21(DE3) with pAC-CANthipi; holo separated from apo on MonoQ
T1 sequence (Q8YMJ2 1-171): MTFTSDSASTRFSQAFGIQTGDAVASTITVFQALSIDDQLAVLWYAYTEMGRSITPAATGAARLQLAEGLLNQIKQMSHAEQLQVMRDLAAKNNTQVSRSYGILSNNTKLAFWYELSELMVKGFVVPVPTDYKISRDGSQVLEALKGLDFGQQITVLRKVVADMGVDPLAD
As to the kind of experiment: holoprotein purified from carotenoid-producing E. coli; separated from apoprotein by anion exchange; absorbance at […] nm. It is filed as binding. Conditions: 50 mM Tris pH 8; 1:1 HCP4:CAN ratio used for quantification.

Consider `CC1=C(/C=C/C(C)=C/C=C/C(C)=C/C=C/C=C(C)/C=C/C=C(C)/C=C/C2=C(C)C(=O)CCC2(C)C)C(C)(C)CCC1=O` [canthaxanthin], for which the “holoprotein purified from carotenoid-producing E. coli; separated from apoprotei” value is “For HCP4, the holoprotein was eluted in the flow through and column wash”.

Values taken from PMC12059629, “N-Terminal domain homologs of the orange carotenoid protein increase quenching of cyanobacterial phycobilisomes” (Plant Physiology, 2024).
